Earlier results as cited in patent US8148390B2, “Monocyclic anilide spirolactam CGRP receptor antagonists” (Merck, Sharp & Dohme, Corp., priority 2007, dated 2012).
Where two headings read alike, the source gives them in different places. Ends that are not written are not given here.

Assays:
[1] = tested on: acute attacks of migraine; conditions: clinical trials (Olesen et al. 2004)
[2] = tested on: facial blood flow; conditions: marmoset, electrical stimulation of the trigeminal ganglion (Doods et al. 2000)
[3] = tested on: headache induced by CGRP infusion; conditions: control group (Petersen et al. 2005)
[4] = tested on: facial blood flow; conditions: rat, trigeminal ganglion stimulation (Escott et al. 1995)
[5] = tested on: middle meningeal artery; conditions: rats, electrical stimulation of the dura mater, prior administration (Williamson et al. 1997)

Compound | efficacy in treating acute attacks of migraine [1] | effect on increase of facial blood flow [2] | prevention of headache induced by CGRP infusion [3] | effect on increase of facial blood flow [4] | effect on increase of middle meningeal artery diameter [5]
NCCCC[C@H](NC(=O)[C@@H](Cc1cc(Br)c(O)c(Br)c1)NC(=O)N1CCC(N2Cc3ccccc3NC2=O)CC1)C(=O)N1CCN(c2ccncc2)CC1 [BIBN4096BS] | effective in treating acute attacks of migraine | could be blocked | able to prevent headache induced by CGRP infusion | – | –
CGRP(8-37): a peptide CGRP antagonist; fragment of CGRP that lacks seven N-terminal amino acid residues (VTHRLAGLLSRSGGVVKNNFVPTNVGSKAF; ends and bridges not checked; UniProt P06881 90-119, looked up, fragment) | – | – | – | inhibited | blocked
